In patent US20080318970A1, “Treatment of Infectious Diseases” (priority 2004, published 2008):

Columns and labels:
HIV-1 strain HTLV-IIIB = experiment: Inhibition of HIV-1 replication in MT4 cells (MTT assay); assay type: cell-based; conditions: Human immunodeficiency virus 1, IIIB, 144 h; compound alone; MT4 cells, six days
Experimental: Each experiment was repeated in tripleduplicate. MIC values represent the mean values of two separate experiments.
The HIV-1 strain HTLV-IIIB were propagated in H9 cells at 37° C., 5% CO2 using RPMI 1640 with 10% heat-inactivated foetal calf serum (FCS) and antibiotics (growth medium). Culture supernatant was filtered ([…]), aliquotted, and stored at −80° C. until use. The HIV-1 strain was obtained from NIH AIDS Research and Reference Program.
(§1) Compounds were examined for possible antiviral activity against strain 111B of HIV-1 using MT4 cells as target cells. MT4 cells were incubated with virus (0.005 MOI) and growth medium containing the test dilutions of compound(s) for six days in parallel with virus-infected and uninfected control cultures without compound added. Expression of HIV in the cultures was indirectly quantified using the MTT assay as previously described. Compounds mediating less than 30% reduction of HIV expression were considered without biological activity. Compounds were tested in parallel for cytotoxic effect in uninfected MT4 cultures containing the test dilutions of compound as described above. Cultures for test of both antiviral activity and cytotoxic effect were set up in tripleduplicates, […] per culture in micro titre plates.
The 50% inhibitory concentration was determined by interpolation from the plots of percent inhibition versus concentration of compound.
EC50 is defined as the effective concentration that inhibits 50% of viral production, 50% of viral infectivity, or 50% of the virus-induced cytopathic effect.

[1] = Cytotoxic effect in uninfected MT4 cultures; assay type: cell-based; conditions: human, uninfected MT4 cells; compound alone; uninfected MT4
Experimental: as §1
CC50 is defined as the inhibitory concentration that reduces cellular growth or viability of uninfected cells by 50%.

Cc1cn([C@H]2C[C@H](N=[N+]=[N-])[C@@H](CO)O2)c(=O)[nH]c1=O [AZT, 3′-Azido-3′-deoxythymidine, reference compound]
EC50 (HIV-1 strain HTLV-IIIB): 50 nM | CC50 at 6 days [1]: > 3000 nM
